According to PubChem BioAssay (NCI):
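GI50 is the concentration that inhibits growth by half. TGI denotes the concentration required for complete inhibition of growth.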

Experiments:
Assay in all cases: NCI anticancer screen, dose series, 384-well format; in the data active = GI50 below about 0.43 µM; inactive = the rest
786-0 renal = tested on: 786-0 renal
A498 renal = tested on: A498 renal
A549 NSCLC = tested on: A549 NSCLC
ACHN renal = tested on: ACHN renal
BT-549 breast = tested on: BT-549 breast
CAKI-1 renal = tested on: CAKI-1 renal
CCRF-CEM leukemia = tested on: CCRF-CEM leukemia
COLO 205 colon = tested on: COLO 205 colon
DU-145 prostate = tested on: DU-145 prostate
HCC-2998 colon = tested on: HCC-2998 colon
HCT-116 colon = tested on: HCT-116 colon
HCT-15 colon = tested on: HCT-15 colon
HL-60(TB) leukemia = tested on: HL-60(TB) leukemia
HOP-62 NSCLC = tested on: HOP-62 NSCLC
HOP-92 NSCLC = tested on: HOP-92 NSCLC
HT29 colon = tested on: HT29 colon
IGROV1 ovarian = tested on: IGROV1 ovarian
K-562 leukemia = tested on: K-562 leukemia
KM12 colon = tested on: KM12 colon
LOX IMVI melanoma = tested on: LOX IMVI melanoma
M14 melanoma = tested on: M14 melanoma
MCF7 breast = tested on: MCF7 breast
MDA-MB-468 breast = tested on: MDA-MB-468 breast
NCI-H226 lung = tested on: NCI-H226 lung
NCI-H23 lung = tested on: NCI-H23 lung
NCI-H460 NSCLC = tested on: NCI-H460 NSCLC
NCI-H522 lung = tested on: NCI-H522 lung
NCI/ADR-RES ovarian = tested on: NCI/ADR-RES ovarian
OVCAR-3 ovarian = tested on: OVCAR-3 ovarian
OVCAR-8 ovarian = tested on: OVCAR-8 ovarian
RPMI-8226 leukemia = tested on: RPMI-8226 leukemia
SF-268 CNS = tested on: SF-268 CNS
SF-295 CNS = tested on: SF-295 CNS
SF-539 CNS = tested on: SF-539 CNS
SK-MEL-2 melanoma = tested on: SK-MEL-2 melanoma
SK-MEL-28 melanoma = tested on: SK-MEL-28 melanoma
SK-MEL-5 melanoma = tested on: SK-MEL-5 melanoma
SK-OV-3 ovarian = tested on: SK-OV-3 ovarian
SN12C renal = tested on: SN12C renal
SNB-19 CNS = tested on: SNB-19 CNS
SNB-75 CNS = tested on: SNB-75 CNS
SR leukemia = tested on: SR leukemia
SW-620 colon = tested on: SW-620 colon
U251 glioblastoma = tested on: U251 glioblastoma
UACC-257 melanoma = tested on: UACC-257 melanoma
UACC-62 melanoma = tested on: UACC-62 melanoma
UO-31 renal = tested on: UO-31 renal

Nc1ccn(C2OC(CO)C(O)C2O)c(=O)n1 (stereo not drawn)
inactive: GI50 (BT-549 breast) 602 nM | GI50 (CAKI-1 renal) 446 nM | GI50 (DU-145 prostate) 501 nM | GI50 (HOP-92 NSCLC) 10600 nM | GI50 (HT29 colon) 1480 nM | GI50 (IGROV1 ovarian) 2390 nM | GI50 (KM12 colon) 6670 nM | GI50 (MDA-MB-468 breast) 1140 nM | GI50 (NCI-H226 lung) 1740 nM | GI50 (NCI/ADR-RES ovarian) 446 nM | GI50 (OVCAR-3 ovarian) 6700 nM | GI50 (RPMI-8226 leukemia) 3490 nM | GI50 (SF-268 CNS) 1030 nM | GI50 (SF-295 CNS) 2140 nM | GI50 (SF-539 CNS) 1800 nM | GI50 (SK-MEL-2 melanoma) > 21400 nM | GI50 (SK-OV-3 ovarian) 1890 nM | GI50 (SN12C renal) 1240 nM | GI50 (SNB-19 CNS) 738 nM | GI50 (SNB-75 CNS) 8640 nM | GI50 (SW-620 colon) 581 nM | GI50 (U251 glioblastoma) 1060 nM | GI50 (UACC-257 melanoma) 2230 nM | GI50 (UACC-62 melanoma) 732 nM
> 27200 nM: TGI (SNB-19 CNS)
790 nM: TGI (SK-MEL-5 melanoma)
12000 nM: TGI (SF-295 CNS)
235 nM: TGI (SR leukemia)
1950 nM: TGI (M14 melanoma)
1010 nM: TGI (NCI-H23 lung)
706 nM: TGI (HOP-62 NSCLC)
9950 nM: TGI (LOX IMVI melanoma)
759 nM: TGI (HL-60(TB) leukemia)
> 30800 nM: TGI (DU-145 prostate)
> 42500 nM: TGI (UACC-257 melanoma)
active: GI50 ([…]-0 renal) 218 nM | GI50 (A498 renal) 270 nM | GI50 (A549 NSCLC) 75.1 nM | GI50 (ACHN renal) 196 nM | GI50 (CCRF-CEM leukemia) < 13.7 nM | GI50 (COLO 205 colon) 58.8 nM | GI50 (HCC-2998 colon) 84.7 nM | GI50 (HCT-116 colon) 69.5 nM | GI50 (HCT-15 colon) 328 nM | GI50 (HL-60(TB) leukemia) 182 nM | GI50 (HOP-62 NSCLC) 63.9 nM | GI50 (K-562 leukemia) 155 nM | GI50 (LOX IMVI melanoma) 286 nM | GI50 (M14 melanoma) 148 nM | GI50 (MCF7 breast) 99.1 nM | GI50 (NCI-H23 lung) 106 nM | GI50 (NCI-H460 NSCLC) 34.3 nM | GI50 (NCI-H522 lung) 85.8 nM | GI50 (OVCAR-8 ovarian) 102 nM | GI50 (SK-MEL-28 melanoma) 171 nM | GI50 (SK-MEL-5 melanoma) 249 nM | GI50 (SR leukemia) 103 nM | GI50 (UO-31 renal) 406 nM
366 nM: TGI (NCI-H460 NSCLC)
2640 nM: TGI (COLO 205 colon)
1110 nM: TGI (ACHN renal)
> 95600 nM: TGI (SF-539 CNS)
20.5 nM: TGI (CCRF-CEM leukemia)
